Test results: doi:10.1101/2020.04.22.021360v1 (biorxiv, 2020)

Assays:
[1] = biological target: T1, PDE2 (cGMP-dependent 3',5'-cyclic phosphodiesterase; PDE2A) (Homo sapiens, UniProt O00408); assay: MicroScale Thermophoresis, 12-concentration dilution; assay type: binding
[2] = biological target: T1, PDE2 (cGMP-dependent 3',5'-cyclic phosphodiesterase; PDE2A); assay: biochemical

T1 sequence (O00408 2-941): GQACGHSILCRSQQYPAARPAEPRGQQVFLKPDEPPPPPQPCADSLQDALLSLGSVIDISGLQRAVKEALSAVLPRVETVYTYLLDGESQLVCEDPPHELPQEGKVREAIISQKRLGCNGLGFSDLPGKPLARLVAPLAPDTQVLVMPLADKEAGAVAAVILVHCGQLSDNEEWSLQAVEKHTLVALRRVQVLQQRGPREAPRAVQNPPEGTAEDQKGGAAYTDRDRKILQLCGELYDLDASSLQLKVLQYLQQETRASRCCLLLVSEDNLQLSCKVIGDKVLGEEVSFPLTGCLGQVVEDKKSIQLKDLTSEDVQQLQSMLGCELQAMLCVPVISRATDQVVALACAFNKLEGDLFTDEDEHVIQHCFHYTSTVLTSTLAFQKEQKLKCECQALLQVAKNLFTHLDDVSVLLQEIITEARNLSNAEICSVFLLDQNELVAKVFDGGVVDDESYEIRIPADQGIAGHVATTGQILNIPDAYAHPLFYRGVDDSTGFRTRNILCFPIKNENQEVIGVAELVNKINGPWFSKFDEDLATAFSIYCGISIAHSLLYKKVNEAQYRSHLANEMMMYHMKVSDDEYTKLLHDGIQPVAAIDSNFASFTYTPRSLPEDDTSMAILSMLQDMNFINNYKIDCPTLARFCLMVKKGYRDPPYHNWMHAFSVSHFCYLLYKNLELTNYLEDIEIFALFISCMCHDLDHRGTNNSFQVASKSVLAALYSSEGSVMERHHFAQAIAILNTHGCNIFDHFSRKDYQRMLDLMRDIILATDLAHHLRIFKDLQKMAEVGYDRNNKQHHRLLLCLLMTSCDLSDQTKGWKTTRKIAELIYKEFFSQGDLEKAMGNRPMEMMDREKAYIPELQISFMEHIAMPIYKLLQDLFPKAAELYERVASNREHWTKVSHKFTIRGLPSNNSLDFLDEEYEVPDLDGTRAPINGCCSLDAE

SMILES | Kd [1] | also measured
CSc1nc2ccccc2c(=O)n1-c1ccc(F)cc1F [Z19056583] | 10.1 µM | Kd [2]: 9.58 µM
CCn1c(=O)c(=O)[nH]c2cc(C(=O)Nc3nc(-c4cccnc4)cs3)ccc21 [Z29458849] |  | Kd ([1]; dye-labelled PDE2, 1:1 fit): 24.9 µM; Kd ([2]; binder): 21.1 µM
O=C(Nc1ccc(Cl)cc1F)c1ccc(-n2cnc3ccccc32)cc1 [Z87546752] | > 100 µM | 
O=C(O)c1ccc(C=C2Cc3c(O)cccc3C2=O)cc1 [Z217160080] |  | Kd ([1]; read-out: apparent KD, dye-labelled PDE2, weak binder, no KD fit): > 100 µM

Second part, led by results:

Kd [1] | SMILES | also measured
> 100 µM | CCSc1nc2ccccc2c2nc(C)nn12 [Z226974122] | 
> 100 µM | Cc1nccc(C(=O)Nc2[nH]ncc2-c2cccc(Cl)c2)n1 [Z973817294] | 
14.2 µM | CSc1nc(Cl)c(C)c(NCC2CCOC2)n1 (stereo not shown) [Z3216015031] | Kd [2]: 12.8 µM
